From patent US20090298707A1, “SPARSE MATRIX SYSTEM AND METHOD FOR IDENTIFICATION OF SPECIFIC LIGANDS OR TARGETS” (priority 2008, published 2009)

Legend:
[1] = per amino acid; cited from earlier work
[2] = test system: immobilized S. aureus cells; assay: Fluorescence microscopy binding of labeled peptides to immobilized bacteria, S. aureus; design: species or system Staphylococcus aureus; settings: for Binding to immobilized S. aureus relative to peptides of the original pilot library: refined libraries, fluorescence images; for Binding to S. aureus (fluorescent staining): 25 μM fluorescein-labeled peptide, 10 minutes, immobilized cells
Method: Peptide samples were prepared at a concentration of 25 μM for screening against a variety of organisms by exposing immobilized bacteria to labeled peptides. For bacterial cell binding assays, cells were grown overnight, washed, and immobilized in a polylysine-coated 96-well plate. Fluorescein-labeled peptide samples were applied to immobilized bacteria, incubated for 10 minutes and washed extensively to remove unbound peptide. Samples were visualized by fluorescence microscopy. For each peptide, both brightfield and fluorescence images were collected, and camera and microscope settings were not altered between images. The locations of cells and background regions were determined using the brightfield images; those regions were then selected in the fluorescence images for quantitation of pixel values for determination of relative fluorescence intensities (represented as bacterial fluorescence/background fluorescence) using the GNU Image Manipulation Program (The GIMP, see, e.g., www.gimp.org).
The following bacterial species and strains were used: Lactobacillus casei (strain), Escherichia coli (W3110), Enterococcus faecium (strain), Streptococcus mutans (UA140), Streptococcus mitis (ATCC 903), Streptococcus gordonii (NY101), Pseudomonas aeruginosa(strain K), Klebsiella pneumoniae (KAY2026), Myxococcus xanthus (Strains DK1622, wildtype, and difA, exopolysaccharide deficient^21), Micrococcus luteus (strain MS2, a community isolate), Staphylococcus epidermidis (strain), and Staphylococcus aureus(strains, and AM1, a methicillin/oxacillin-resistant community isolate).
For isolation of community-acquired S. aureus and M. luteus strains (strains MS2 and AM1), swabs were collected from the nostrils of several volunteers and streaked on Brain-Heart Infusion (BHI) agar and incubated at 37° C. overnight. Yellow colonies were isolated and typed (Microbial ID, Inc., Newark, Del.). Antibiotic resistance was assayed by plating on BHI in the presence of various antibiotics. Commercially available antibiotic susceptibility test disks were used to assay for oxacillin resistance (BD Biosciences), according to the manufacturer's instructions. Due to the difficulty of obtaining methicillin, oxacillin resistance was used as a proxy for methicillin resistance in isolated strains.^22
The peptides comprising these two refined libraries were synthesized, labeled, and screened against immobilized S. aureus cells exactly as for the original pilot library.
To examine the specificities of the peptides identified in this experiment, a diverse panel of various strains of bacteria was assembled, consisting of Lactobacillus casei, Escherichia coli, Enterococcus faecalis, Streptococcus mutans, Streptococcus mitis, Streptococcus gordonii, Pseudomonas aeruginosa, Klebsiella pneumoniae, Micrococcus luteus (strain MS2), Staphylococcus epidermidis, and two strains of Staphylococcus aureus: a methicillin/oxacillin-sensitive community isolate and our methicillin/oxacillin-resistant community isolate of (strain AM1). Peptides 3C and 4D from the original pilot library were screened for binding against these bacteria by fluorescence microscopy, and images were analyzed as before.

S. aureus AM1 = assay: Pulldown binding assay, Langmuir isotherm fit, S. aureus; design: species or system Staphylococcus aureus; settings: for Langmuir Affinity (Ka): association constant from Langmuir isotherm fit, fluorescein-labeled peptide 0-100 μM; for Monolayer Concentration (N): maximum surface concentration from Langmuir fit
Excerpt: (§1) To investigate whether the changes in the observed level of binding were due to changes in the affinities or avidities of the refined peptides for cell surfaces, binding curves were generated for selected peptides and fit to the Langmuir isotherm (where possible), the simplest model describing binding to surfaces (peptides showing either complex or nonspecific binding isotherms were excluded from this analysis).
(§2) Measurements were taken of the absorbance of the labeled peptide at 488 nm (the peak absorbance of the fluorescein label) before and after exposure to the cells. The amount of peptide bound was calculated by comparing the ratio of the final (Af) and initial (Ai) absorbances to the initial concentration (C0)[Cbound=C0(1−(Af/Ai))]. Bacterial surface area per sample was calculated using a stage micrometer to determine the average cell diameter for each species (1.0+/−0.1 μm for S. aureus AM1, 2.7+/−0.1 μm for M. luteus MS2), treating individual cells as discrete spheres. Average cell concentration per unit OD600 was calculated using a hemocytometer.
(§3) Plots were then generated of the amount of peptide bound per m^2 of bacterial surface area vs. the concentration of unbound peptide at equilibrium. Where possible, the resulting isotherms were fit to the Langmuir isotherm (P/A=(KaNCeq)/(1+KaCeq), where P/A represents the molar amount of peptide bound per unit of bacterial surface area, Ka is the association constant of the peptide with the bacterial surface (L/Mol), N is the maximum surface concentration (mol/m^2), and Ceq is the molar concentration of unbound peptide at equilibrium) (Calis et al. (1995) Pharm Res 12(7): 1072-1076). Data plots and curvefits were obtained using Kaleidagraph (Synergy Software).

M. luteus MS2 = assay: Pulldown binding assay, Langmuir isotherm fit, M. luteus; design: species or system Micrococcus luteus; settings: for Langmuir Affinity (Ka): association constant from Langmuir isotherm fit; for Monolayer Concentration (N): maximum surface concentration from Langmuir fit
Excerpt: as §1, §2, §3

NCC(=O)O [Gly]
Hydrophobicity (Fauchere and Pliska, 1983) [1]: 0

CC(C)C[C@H](N)C(=O)O [Leu]
Hydrophobicity (Fauchere and Pliska, 1983) [1]: 1.7

In-plane refinement B4: in-plane refined library peptide, SEQ ID NO:53 (IVKDVIERL; synthetic in-plane refinement library peptide B4)
Binding to immobilized S. aureus relative to peptides of the original pilot library [2]: enhanced binding

NC(=O)CC[C@H](N)C(=O)O [Gln]
Hydrophobicity (Fauchere and Pliska, 1983) [1]: −0.22

Orthogonal refinement 2C: orthogonal refined library peptide, SEQ ID NO:71 (IVSQVIQNL; synthetic orthogonal refinement library peptide C2)
Langmuir Affinity (Ka) (S. aureus AM1): 1.1 ± 0.3 M^−1 × 10000 | Monolayer Concentration (N) (S. aureus AM1): 7 ± 1 Mol/m^2 × 0.0001 | Langmuir Affinity (Ka) (M. luteus MS2): 1.4 ± 0.4 M^−1 × 10000 | Monolayer Concentration (N) (M. luteus MS2): 0.12 ± 0.03 Mol/m^2 × 0.0001

O=C(O)[C@@H]1CCCN1 [Pro]
Hydrophobicity (Fauchere and Pliska, 1983) [1]: 0.72

C[C@@H](O)[C@H](N)C(=O)O [Thr]
Hydrophobicity (Fauchere and Pliska, 1983) [1]: 0.26

Pilot Library 4C: pilot library 9-mer, SEQ ID NO:24; became A4 of the in-plane matrix (SEQ ID NO:49) (LIKDILERL; synthetic pilot library peptide C4)
Binding to S. aureus (fluorescent staining) [2]: some of the brightest unique staining | Langmuir Affinity (Ka) (S. aureus AM1): 5 ± 1 M^−1 × 10000 | Monolayer Concentration (N) (S. aureus AM1): 0.23 ± 0.2 Mol/m^2 × 0.0001 | Langmuir Affinity (Ka) (M. luteus MS2): 1 ± 0.6 M^−1 × 10000 | Monolayer Concentration (N) (M. luteus MS2): 0.10 ± 0.04 Mol/m^2 × 0.0001

In-plane refinement B2: in-plane refined library peptide, SEQ ID NO:51 (IVSQVIQNL; synthetic in-plane refinement library peptide B2)
Binding to immobilized S. aureus relative to peptides of the original pilot library [2]: enhanced binding

N[C@@H](Cc1ccc(O)cc1)C(=O)O [Tyr]
Hydrophobicity (Fauchere and Pliska, 1983) [1]: 0.96

NCCCC[C@H](N)C(=O)O [Lys]
Hydrophobicity (Fauchere and Pliska, 1983) [1]: −0.99

Orthogonal refinement 2B: orthogonal refined library peptide, SEQ ID NO:67 (IVVSQQILN; synthetic orthogonal refinement library peptide B2)
Langmuir Affinity (Ka) (M. luteus MS2): 0.4 ± 0.3 M^−1 × 10000 | Monolayer Concentration (N) (M. luteus MS2): 0.5 ± 0.3 Mol/m^2 × 0.0001

Pilot Library 3D: pilot library 9-mer, SEQ ID NO:29; became D1 of the in-plane matrix (SEQ ID NO:58) (VASYVATQV; synthetic pilot library peptide D3)
Binding to S. aureus (fluorescent staining) [2]: some of the brightest unique staining | Langmuir Affinity (Ka) (S. aureus AM1): 6 ± 1 M^−1 × 10000 | Monolayer Concentration (N) (S. aureus AM1): 0.18 ± 0.2 Mol/m^2 × 0.0001 | Langmuir Affinity (Ka) (M. luteus MS2): 10 ± 7 M^−1 × 10000 | Monolayer Concentration (N) (M. luteus MS2): 0.021 ± 0.004 Mol/m^2 × 0.0001

In-plane refinement C2: in-plane refined library peptide, SEQ ID NO:55 (LVSQVLQNV; synthetic in-plane refinement library peptide C2)
Binding to immobilized S. aureus relative to peptides of the original pilot library [2]: enhanced binding

Orthogonal refinement 2A: orthogonal refined library peptide, SEQ ID NO:63 (IVVILSQQN; synthetic orthogonal refinement library peptide A2)
Langmuir Affinity (Ka) (S. aureus AM1): 13 ± 4 M^−1 × 10000 | Affinity relative to initial hits / parent peptide of the pilot library (S. aureus AM1; in words): comparable affinity | Nmax relative to pilot library hits (S. aureus AM1; in words): significant increase | Monolayer Concentration (N) (S. aureus AM1): 0.14 ± 0.01 Mol/m^2 × 0.0001 | Langmuir Affinity (Ka) (M. luteus MS2): 1.6 ± 0.7 M^−1 × 10000 | KA relative to peptides from the parent library (M. luteus MS2; in words): no significant changes | Nmax relative to peptides from the parent library (M. luteus MS2; in words): no significant changes | Monolayer Concentration (N) (M. luteus MS2): 0.5 ± 0.2 Mol/m^2 × 0.0001

N[C@@H](Cc1c[nH]c2ccccc12)C(=O)O [Trp]
Hydrophobicity (Fauchere and Pliska, 1983) [1]: 2.25

N[C@@H](Cc1ccccc1)C(=O)O [Phe]
Hydrophobicity (Fauchere and Pliska, 1983) [1]: 1.79

N[C@@H](Cc1c[nH]cn1)C(=O)O [His]
Hydrophobicity (Fauchere and Pliska, 1983) [1]: 0.13

CC[C@H](C)[C@H](N)C(=O)O [Ile]
Hydrophobicity (Fauchere and Pliska, 1983) [1]: 1.8

NC(=O)C[C@H](N)C(=O)O [Asn]
Hydrophobicity (Fauchere and Pliska, 1983) [1]: −0.6

CSCC[C@H](N)C(=O)O [Met]
Hydrophobicity (Fauchere and Pliska, 1983) [1]: 1.23

N=C(N)NCCC[C@H](N)C(=O)O [Arg]
Hydrophobicity (Fauchere and Pliska, 1983) [1]: −1.01

CC(C)[C@H](N)C(=O)O [Val]
Hydrophobicity (Fauchere and Pliska, 1983) [1]: 1.22

In-plane refinement C4: in-plane refined library peptide, SEQ ID NO:57 (LVKDVLERV; synthetic in-plane refinement library peptide C4)
Binding to immobilized S. aureus relative to peptides of the original pilot library [2]: enhanced binding

In-plane refinement C1: in-plane refined library peptide, SEQ ID NO:54 (LVSYVLTQV; synthetic in-plane refinement library peptide C1)
Binding to immobilized S. aureus relative to peptides of the original pilot library [2]: enhanced binding

In-plane refinement 3A: in-plane refined library peptide, SEQ ID NO:48 (LIERILQNL; synthetic in-plane refinement library peptide A3)
Binding to S. aureus (fluorescent staining) [2]: binding was seen only to the methicillin/oxacilin-resistant strain of S. aureus | Binding to immobilized S. aureus relative to peptides of the original pilot library [2]: enhanced binding | Affinity relative to initial hits / parent peptide of the pilot library (S. aureus AM1; in words): increased affinity | Langmuir Affinity (Ka) (M. luteus MS2): 8 ± 3 M^−1 × 10000 | Nmax relative to peptides from the parent library (M. luteus MS2; in words): sharp reduction | Monolayer Concentration (N) (M. luteus MS2): 0.0047 ± 0.006 Mol/m^2 × 0.0001

N[C@@H](CCC(=O)O)C(=O)O [Glu]
Hydrophobicity (Fauchere and Pliska, 1983) [1]: −0.64

N[C@@H](CC(=O)O)C(=O)O [Asp]
Hydrophobicity (Fauchere and Pliska, 1983) [1]: −0.77

C[C@H](N)C(=O)O [Ala]
Hydrophobicity (Fauchere and Pliska, 1983) [1]: 0.31
